Assay results from patent US20240226115A1, “AXL INHIBITOR COMPOUNDS” (ARCUS BIOSCIENCES, INC., priority 2021, published 2024).

Biological target: T1, recombinant human TYRO3 (Homo sapiens, UniProt Q06418)
T1 construct: purchased Invitrogen
T1 sequence (Q06418 41-890): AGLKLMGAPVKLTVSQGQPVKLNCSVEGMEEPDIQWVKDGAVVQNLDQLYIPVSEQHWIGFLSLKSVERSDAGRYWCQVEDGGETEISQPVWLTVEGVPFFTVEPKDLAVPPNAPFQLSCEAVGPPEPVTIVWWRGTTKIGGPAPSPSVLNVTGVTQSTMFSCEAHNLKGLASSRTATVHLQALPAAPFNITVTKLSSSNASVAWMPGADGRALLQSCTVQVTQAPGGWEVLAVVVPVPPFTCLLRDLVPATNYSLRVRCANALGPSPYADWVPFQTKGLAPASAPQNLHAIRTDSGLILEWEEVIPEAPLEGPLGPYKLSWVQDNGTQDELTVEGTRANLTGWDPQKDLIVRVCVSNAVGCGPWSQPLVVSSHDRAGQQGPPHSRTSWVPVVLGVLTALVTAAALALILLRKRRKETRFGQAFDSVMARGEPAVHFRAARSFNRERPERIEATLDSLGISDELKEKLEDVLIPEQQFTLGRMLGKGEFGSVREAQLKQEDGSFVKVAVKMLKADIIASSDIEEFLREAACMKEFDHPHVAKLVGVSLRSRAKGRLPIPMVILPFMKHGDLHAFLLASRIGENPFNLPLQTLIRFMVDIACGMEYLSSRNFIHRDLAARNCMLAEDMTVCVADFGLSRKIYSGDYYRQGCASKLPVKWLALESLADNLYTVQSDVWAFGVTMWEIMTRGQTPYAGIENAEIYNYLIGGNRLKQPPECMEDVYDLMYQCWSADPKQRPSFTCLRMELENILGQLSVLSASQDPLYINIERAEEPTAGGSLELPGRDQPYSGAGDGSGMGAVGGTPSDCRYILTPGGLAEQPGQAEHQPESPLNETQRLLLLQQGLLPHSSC
Test: HTRF KinEASE-TK biochemical potency, TYRO3
Conditions: 1 nM TYRO3, 700 μM ATP
Protocol: Purified recombinant human AXL, TYRO3 and MER proteins were purchased from Invitrogen™. 10 nM AXL, 2 nM TYRO3 or MER were incubated with varying concentrations of compounds in 50 mM HEPES, pH 7.4, 10 mM MgCl2, 0.01% BSA, 1 mM DTT and 2% DMSO in a total volume of 20 μl in a 384-well microplate (Corning™ #3640) at RT for 1 h. The AXL, TYRO3 and MER enzymatic reaction was initiated by transferring 10 μl of enzyme and compound mixture into 10 μl of 1.6 μM TK Substrate-biotin (HTRF® KinEASE-TK kit, Cisbio) and 1400 μM ATP pre-incubated in 50 mM HEPES, pH 7.4, 10 mM MgCl2, 0.01% BSA, 1 mM DTT in a 384-well microplate (Corning™ #3640) at RT, giving the final reaction conditions: 5 nM AXL, 1 nM TYRO3 or MER, 800 nM TK Substrate-biotin and 700 μM ATP in 50 mM HEPES, pH 7.4, 10 mM MgCl2, 0.01% BSA, 1 mM DTT and 1% DMSO with varying concentrations of compounds. Following 2 h incubation at RT, the AXL, TYRO3 and MER enzymatic reaction was stopped by transfer of 10 μl of reaction into 10 μl of detection mix (400 nM Streptavidin-XL665, 200-fold dilution TK Antibody-Cryptate and detection buffer, HTRF® KinEASE-TK kit, Cisbio) in a white 384-well microplate (Perkin Elmer, OptiPlate 384). After 1 h incubation at RT, the plate was put into a plate reader (Evision) to read at 665/620 nm (acceptor/donor) for HTRF. The value of the DMSO blank (MIN inhibition=100% activity) was used as a negative control. The positive control was established by adding 5 μl of enzyme and DMSO mixture into 10 μl of detection mix followed by addition of 5 μl of TK Substrate-biotin and ATP mixture (MAX inhibition=0% activity). To calculate the percent activity, Equation 1 was used. Ratio665/620 is the value at a given compound concentration: […]

| SMILES | IC50 |
| --- | --- |
| O=C1NCCOc2cc(-c3n[nH]c4ncc(-c5ccc6c(c5)CCC(N5CCCC5)CC6)cc34)ccc21 (racemic) [Example 1, 8-{5-[7-(Pyrrolidin-1-yl)-6,7,8,9-tetrahydro-5H-benzo[7]annulen-2-yl]-1H-pyrazolo[3,4-b]pyridin-3-yl}-2,3,4,5-tetrahydro-1,4-benzoxazepin-5-one] | < 0.1 µM |
| O=C1NCCOc2cc(-c3n[nH]c4ncc(-c5ccc6c(c5)CC[C@H](N5CCCC5)CC6)cc34)ccc21 (single isomer, unassigned) [Example 56] | < 0.1 µM |
| O=C1NCCOc2cc(-c3n[nH]c4ncc(-c5ccc6c(c5)CC[C@@H](N5CCCC5)CC6)cc34)ccc21 (single isomer, unassigned) [Example 57] | < 0.1 µM |
| O=C1NCCOc2cc(-c3n[nH]c4ncc(-c5ccc6c(c5)CCC(N5CCCC5)C6)cc34)ccc21 (stereo not drawn) [Example 2, 8-{5-[6-(Pyrrolidin-1-yl)-5,6,7,8-tetrahydronaphthalen-2-yl]-1H-pyrazolo[3,4-b]pyridin-3-yl}-2,3,4,5-tetrahydro-1,4-benzoxazepin-5-one] | < 0.1 µM |
| O=C1NCCOc2cc(-c3n[nH]c4ncc(-c5ccc6c(c5)CC(N5CCCC5)CC6)cc34)ccc21 (stereo not drawn) [Example 3, 8-{5-[7-(Pyrrolidin-1-yl)-5,6,7,8-tetrahydronaphthalen-2-yl]-1H-pyrazolo[3,4-b]pyridin-3-yl}-2,3,4,5-tetrahydro-1,4-benzoxazepin-5-one] | < 0.1 µM |
| O=C1NCCOc2cc(-c3n[nH]c4ncc(-c5ccc6c(c5)CCC(N[C@H]5CCOC5)C6)cc34)ccc21 (stereo partly drawn) [Example 4, 8-[5-(6-{[(3S)—Oxolan-3-yl]amino}-5,6,7,8-tetrahydronaphthalen-2-yl)-1H-pyrazolo[3,4-b]pyridin-3-yl]-2,3,4,5-tetrahydro-1,4-benzoxazepin-5-one] | < 0.1 µM |
| O=C1NCCOc2cc(-c3n[nH]c4ncc(-c5ccc6c(c5)CCC(N[C@@H]5CCOC5)C6)cc34)ccc21 (stereo partly drawn) [Example 5, 8-[5-(6-{[(3R)—Oxolan-3-yl]amino}-5,6,7,8-tetrahydronaphthalen-2-yl)-1H-pyrazolo[3,4-b]pyridin-3-yl]-2,3,4,5-tetrahydro-1,4-benzoxazepin-5-one] | < 0.1 µM |
| C[C@@H]1CCCN1C1CCc2ccc(-c3cnc4[nH]nc(-c5cc(F)c6c(c5)OCCNC6=O)c4c3)cc2CC1 (stereo partly drawn) [Example 6, 6-Fluoro-8-(5-{7-[(2R)-2-methylpyrrolidin-1-yl]-6,7,8,9-tetrahydro-5H-benzo[7]annulen-2-yl}-1H-pyrazolo[3,4-b]pyridin-3-yl)-2,3,4,5-tetrahydro-1,4-benzoxazepin-5-one] | < 0.1 µM |
| O=C1NCCOc2cc(-c3n[nH]c4ncc(-c5ccc6c(c5)CCN(C5CCCC5)CC6)cc34)ccc21 [Example 7, 8-[5-(3-Cyclopentyl-2,3,4,5-tetrahydro-1H-3-benzazepin-7-yl)-1H-pyrazolo[3,4-b]pyridin-3-yl]-2,3,4,5-tetrahydro-1,4-benzoxazepin-5-one] | < 0.1 µM |
| O=C1NCCOc2cc(-c3n[nH]c4ncc(-c5ccc6c(c5)CCN(C5CCCC5)C6)cc34)ccc21 [Example 9, 8-(5-(2-Cyclopentyl-1,2,3,4-tetrahydroisoquinolin-6-yl)-1H-pyrazolo[3,4-b]pyridin-3-yl)-3,4-dihydrobenzo[f][1,4]oxazepin-5(2H)-one] | < 0.1 µM |
| O=C1NCCOc2cc(-c3n[nH]c4ncc(-c5ccc6c(c5)CN(C5CCCC5)CC6)cc34)ccc21 [Example 10, 8-(5-(2-Cyclopentyl-1,2,3,4-tetrahydroisoquinolin-7-yl)-1H-pyrazolo[3,4-b]pyridin-3-yl)-3,4-dihydrobenzo[f][1,4]oxazepin-5(2H)-one] | < 0.1 µM |
| O=C1NCCOc2cc(-c3n[nH]c4ncc(-c5ccc6c(c5)CCN(C5COC5)CC6)cc34)ccc21 [Example 11, 8-(5-(3-(Oxetan-3-yl)-2,3,4,5-tetrahydro-1H-benzo[d]azepin-7-yl)-1H-pyrazolo[3,4-b]pyridin-3-yl)-3,4-dihydrobenzo[f][1,4]oxazepin-5(2H)-one] | < 0.1 µM |
| O=C1NCCOc2cc(-c3n[nH]c4ncc(-c5ccc6c(c5)CCN(C5COC5)C6)cc34)ccc21 [Example 12, 8-(5-(2-(Oxetan-3-yl)-1,2,3,4-tetrahydroisoquinolin-6-yl)-1H-pyrazolo[3,4-b]pyridin-3-yl)-3,4-dihydrobenzo[f][1,4]oxazepin-5(2H)-one] | < 0.1 µM |
| COCCN1CCc2cc(-c3cnc4[nH]nc(-c5ccc6c(c5)OCCNC6=O)c4c3)ccc2C1 [Example 13, 8-(5-(2-(2-Methoxyethyl)-1,2,3,4-tetrahydroisoquinolin-6-yl)-1H-pyrazolo[3,4-b]pyridin-3-yl)-3,4-dihydrobenzo[f][1,4]oxazepin-5(2H)-one] | < 0.1 µM |
| COCCN1CCc2ccc(-c3cnc4[nH]nc(-c5ccc6c(c5)OCCNC6=O)c4c3)cc2CC1 [Example 15, 8-(5-(3-(2-Methoxyethyl)-2,3,4,5-tetrahydro-1H-benzo[d]azepin-7-yl)-1H-pyrazolo[3,4-b]pyridin-3-yl)-3,4-dihydrobenzo[f][1,4]oxazepin-5(2H)-one] | < 0.1 µM |
| CC(C)C(=O)N1CCc2ccc(-c3cnc4[nH]nc(-c5ccc6c(c5)OCCNC6=O)c4c3)cc2CC1 [Example 16, 8-{5-[3-(2-Methylpropanoyl)-2,3,4,5-tetrahydro-1H-3-benzazepin-7-yl]-1H-pyrazolo[3,4-b]pyridin-3-yl}-2,3,4,5-tetrahydro-1,4-benzoxazepin-5-one] | < 0.1 µM |
| O=C1NCCOc2cc(-c3n[nH]c4ncc(-c5ccc6c(c5)CCN(C(=O)C5CC5)CC6)cc34)ccc21 [Example 17, 8-[5-(3-Cyclopropanecarbonyl-2,3,4,5-tetrahydro-1H-3-benzazepin-7-yl)-1H-pyrazolo[3,4-b]pyridin-3-yl]-2,3,4,5-tetrahydro-1,4-benzoxazepin-5-one] | < 0.1 µM |
| CC(C)(O)C(=O)N1CCc2ccc(-c3cnc4[nH]nc(-c5ccc6c(c5)OCCNC6=O)c4c3)cc2CC1 [Example 19, 8-(5-(3-(2-Hydroxy-2-methylpropanoyl)-2,3,4,5-tetrahydro-1H-benzo[d]azepin-7-yl)-1H-pyrazolo[3,4-b]pyridin-3-yl)-3,4-dihydrobenzo[f][1,4]oxazepin-5(2H)-one] | < 0.1 µM |
| O=C1NCCOc2cc(-c3n[nH]c4ncc(-c5ccc6c(c5)CCN(C5CC5)CC6)cc34)ccc21 [Example 20, 8-(5-(3-Cyclopropyl-2,3,4,5-tetrahydro-1H-benzo[d]azepin-7-yl)-1H-pyrazolo[3,4-b]pyridin-3-yl)-3,4-dihydrobenzo[f][1,4]oxazepin-5(2H)-one] | < 0.1 µM |
| O=C1NCCOc2cc(-c3n[nH]c4ncc(-c5ccc6c(c5)CCN(C5CC5)C6)cc34)ccc21 [Example 21, 8-(5-(2-Cyclopropyl-1,2,3,4-tetrahydroisoquinolin-6-yl)-1H-pyrazolo[3,4-b]pyridin-3-yl)-3,4-dihydrobenzo[f][1,4]oxazepin-5(2H)-one] | 0.1 to 1 µM |
| CC1(N2CCCC2)CCc2ccc(-c3cnc4[nH]nc(-c5ccc6c(c5)OCCNC6=O)c4c3)cc2CC1 (stereo not drawn) [Example 22, 8-{5-[7-Methyl-7-(pyrrolidin-1-yl)-6,7,8,9-tetrahydro-5H-benzo[7]annulen-2-yl]-1H-pyrazolo[3,4-b]pyridin-3-yl}-2,3,4,5-tetrahydro-1,4-benzoxazepin-5-one] | < 0.1 µM |
